Results published in ChEMBL document CHEMBL4619744, “Evaluation of nitrocatechol chalcone and pyrazoline derivatives as inhibitors of catechol-O-methyltransferase and monoamine oxidase” (Bioorg Med Chem Lett, 2020).

What was measured:
[1] = molecular target: T1, Catechol O-methyltransferase (Rattus norvegicus, UniProt P22734); assay: Inhibition of rat liver COMT using esculetin as substrate by fluorescence based spectrophotometry
T1 sequence (P22734 whole entry): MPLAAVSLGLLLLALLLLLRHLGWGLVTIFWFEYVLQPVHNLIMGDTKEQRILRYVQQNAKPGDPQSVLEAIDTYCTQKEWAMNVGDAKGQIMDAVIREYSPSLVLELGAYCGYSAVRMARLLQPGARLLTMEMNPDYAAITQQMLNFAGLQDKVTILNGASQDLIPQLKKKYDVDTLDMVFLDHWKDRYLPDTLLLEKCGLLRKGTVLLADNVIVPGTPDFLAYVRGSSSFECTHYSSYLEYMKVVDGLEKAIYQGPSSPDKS

[2] = molecular target: T2, Amine oxidase [flavin-containing] A (Homo sapiens, UniProt P21397); assay: Inhibition of recombinant human MAOA using kynuramine as substrate by fluorescence based assay
T2 sequence (P21397 whole entry): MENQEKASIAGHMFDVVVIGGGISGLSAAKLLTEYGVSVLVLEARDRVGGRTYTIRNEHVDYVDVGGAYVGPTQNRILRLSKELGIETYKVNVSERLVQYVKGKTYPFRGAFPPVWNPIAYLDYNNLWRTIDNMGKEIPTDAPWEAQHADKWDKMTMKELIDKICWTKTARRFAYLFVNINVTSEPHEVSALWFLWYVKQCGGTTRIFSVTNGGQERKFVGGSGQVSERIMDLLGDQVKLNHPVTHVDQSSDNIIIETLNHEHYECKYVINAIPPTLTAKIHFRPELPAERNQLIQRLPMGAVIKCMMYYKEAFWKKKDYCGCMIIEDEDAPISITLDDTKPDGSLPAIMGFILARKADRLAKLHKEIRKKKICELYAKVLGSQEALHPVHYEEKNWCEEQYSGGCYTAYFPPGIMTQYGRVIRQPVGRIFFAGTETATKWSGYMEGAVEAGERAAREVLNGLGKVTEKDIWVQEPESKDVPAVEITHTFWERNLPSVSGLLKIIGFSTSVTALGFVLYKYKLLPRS

[3] = molecular target: T3, Amine oxidase [flavin-containing] B (Homo sapiens, UniProt P27338); assay: Inhibition of recombinant human MAOB using kynuramine as substrate by fluorescence based assay
T3 sequence (P27338 whole entry): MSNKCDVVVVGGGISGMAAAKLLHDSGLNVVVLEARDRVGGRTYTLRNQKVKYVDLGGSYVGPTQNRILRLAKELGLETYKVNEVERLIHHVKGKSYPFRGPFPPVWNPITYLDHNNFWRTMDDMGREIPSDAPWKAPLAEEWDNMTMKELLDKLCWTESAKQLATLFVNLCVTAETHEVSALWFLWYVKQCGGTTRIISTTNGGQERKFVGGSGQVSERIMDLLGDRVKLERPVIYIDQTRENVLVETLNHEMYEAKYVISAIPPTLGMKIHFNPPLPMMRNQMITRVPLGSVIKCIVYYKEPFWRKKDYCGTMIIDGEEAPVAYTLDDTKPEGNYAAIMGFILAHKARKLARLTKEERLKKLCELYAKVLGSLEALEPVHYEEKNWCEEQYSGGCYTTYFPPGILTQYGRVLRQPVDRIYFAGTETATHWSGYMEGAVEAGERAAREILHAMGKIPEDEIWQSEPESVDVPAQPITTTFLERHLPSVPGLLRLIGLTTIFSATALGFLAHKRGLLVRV

[4] = molecular target: T4, Catechol O-methyltransferase (Rattus norvegicus) (UniProt P22734); assay: Potency index, ratio of IC50 of 1-(3,4-dihydroxy-5-nitro-phenyl)-3-(3-methoxyphenyl)prop-2-en-1-one to IC50 of compound for inhibition of rat liver COMT using esculetin as substrate by fluorescence based spectrophotometry
T4 sequence (whole entry): T1 sequence (P22734 whole entry)

[5] = molecular target: T5, Catechol O-methyltransferase (Homo sapiens, UniProt P21964); assay: Inhibition of COMT (unknown origin)
T5 sequence (P21964 whole entry): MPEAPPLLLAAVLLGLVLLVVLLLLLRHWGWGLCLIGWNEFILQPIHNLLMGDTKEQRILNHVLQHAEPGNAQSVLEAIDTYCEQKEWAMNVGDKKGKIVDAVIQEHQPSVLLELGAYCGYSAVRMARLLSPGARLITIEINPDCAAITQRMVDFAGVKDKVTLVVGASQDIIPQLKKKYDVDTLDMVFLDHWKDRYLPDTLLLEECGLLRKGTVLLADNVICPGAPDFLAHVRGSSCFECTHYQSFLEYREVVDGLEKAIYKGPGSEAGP

[6] = molecular target: T2, Amine oxidase [flavin-containing] A; assay: Inhibition of recombinant human MAOA expressed in insect cells measured after 20 mins by fluorescence spectrophotometry
[7] = molecular target: T3, Amine oxidase [flavin-containing] B; assay: Inhibition of recombinant human MAOB expressed in insect cells measured after 20 mins by fluorescence spectrophotometry

SMILES | IC50 [1] | IC50 [2] | IC50 [3] | Ratio IC50 [4] | IC50 [5] | IC50 [6] | IC50 [7]
O=C(/C=C/c1nccs1)c1cc(O)c(O)c([N+](=O)[O-])c1 | 0.24 µM | 69.6 µM | 59.2 µM |  |  |  | 
CC(=O)N1N=C(c2cc(O)c(O)c([N+](=O)[O-])c2)CC1c1ccoc1 (centres undefined) | 0.18 µM | 90.9 µM | 126 µM |  |  |  | 
CC(=O)N1N=C(c2cc(O)c(O)c([N+](=O)[O-])c2)CC1c1ccc(C#N)cc1 (centres undefined) | 0.048 µM | 76.6 µM | 83.2 µM | 1.46 |  |  | 
O=C(/C=C/c1ccsc1)c1cc(O)c(O)c([N+](=O)[O-])c1 | 0.23 µM | 41.4 µM | 42.1 µM |  |  |  | 
CC(=O)N1N=C(c2cc(O)c(O)c([N+](=O)[O-])c2)CC1c1cccc(C#N)c1 (centres undefined) | 0.079 µM | 70.6 µM | 55.4 µM |  |  |  | 
COc1cccc(/C=C/C(=O)c2cc(O)c(O)c([N+](=O)[O-])c2)c1 |  |  |  |  | 0.07 µM | 67.6 µM | 
O=C(/C=C/c1cccc(Br)c1)c1cc(O)c(O)c([N+](=O)[O-])c1 |  |  |  |  | 0.29 µM | 76.1 µM | 13.9 µM
O=C(/C=C/c1ccco1)c1cc(O)c(O)c([N+](=O)[O-])c1 | 0.23 µM | 60.5 µM | 68.2 µM |  |  |  | 
CC(=O)N1N=C(c2cc(O)c(O)c([N+](=O)[O-])c2)CC1c1cccs1 (centres undefined) | 0.21 µM | 86.3 µM | 69.2 µM |  |  |  | 
Cn1cc(/C=C/C(=O)c2cc(O)c(O)c([N+](=O)[O-])c2)cn1 | 0.29 µM | 51.5 µM | 66.2 µM |  |  |  | 
N#Cc1cccc(/C=C/C(=O)c2cc(O)c(O)c([N+](=O)[O-])c2)c1 | 0.24 µM | 58.9 µM | 60.6 µM |  |  |  | 
O=C(/C=C/c1cccs1)c1cc(O)c(O)c([N+](=O)[O-])c1 | 0.19 µM | 49.9 µM | 62.9 µM |  |  |  | 
O=C(/C=C/c1cccc(O)c1)c1cc(O)c(O)c([N+](=O)[O-])c1 | 0.14 µM | 43.9 µM | 55.8 µM |  |  |  | 
CC(=O)N1N=C(c2cc(O)c(O)c([N+](=O)[O-])c2)CC1c1cccc(O)c1 (centres undefined) | 0.075 µM | 87 µM | 85.2 µM |  |  |  | 
O=C(/C=C/c1ccoc1)c1cc(O)c(O)c([N+](=O)[O-])c1 | 0.29 µM | 52.9 µM | 71.4 µM |  |  |  | 
CC(=O)N1N=C(c2cc(O)c(O)c([N+](=O)[O-])c2)CC1c1nccs1 (centres undefined) | 0.16 µM | 84.6 µM | 68.2 µM |  |  |  | 
N#Cc1ccc(/C=C/C(=O)c2cc(O)c(O)c([N+](=O)[O-])c2)cc1 | 0.18 µM | 45.3 µM | 56.6 µM |  |  |  | 
CC(=O)N1N=C(c2cc(O)c(O)c([N+](=O)[O-])c2)CC1c1ccco1 (centres undefined) | 0.18 µM | 98 µM | 77.4 µM |  |  |  | 
